Experiment in all cases: NCI anticancer screen, dose series, 48 h
Assay [1] relates to DU-145 prostate.
Assay [2] has as its system HCC-2998 colon.
Assay [3] relates to HOP-62 NSCLC.
For assay [4], the system named is HT29 colon.
Assay [5] has as its system MDA-MB-435.
For assay [6], the system named is OVCAR-3 ovarian.
Assay [7] has as its system PC-3 prostate.
The subject of assay [8] is RPMI-8226 leukemia.
For assay [9], the system named is SK-MEL-28 melanoma.
Assay [10] concerns T-47D breast.

SMILES strings stand for the structures.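 1) Cells in 96-well plates. 2) Compound, 48 h, 5 concentrations. 3) Linear interpolation between surrounding doses. 4) Unreached endpoint = highest concentration. The concentration for 50% growth inhibition is given as GI50. At the TGI there is no net growth.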 Some results are limits rather than exact numbers.

With `Cc1ccc(S(=O)(=O)Oc2ccc3c4c(c(=O)oc3c2)CCCCCC4)cc1`, the GI50 in assay [1] is above 100 µM; in assay [2], above 100 µM; in [3], above 100 µM; in assay [4] it was 0.531 µM; in [5] it was above 100 µM; in [6], above 100 µM. In addition, the GI50 in assay [7] is 5.97 µM; in assay [8], 2.33 µM; in [9], above 100 µM; in assay [10] it was 5.05 µM. The TGI in [1], in assay [2], in assay [3], in assay [4], in assay [5] and in assay [6] was above 100 µM in each case. For the same molecule, the TGI in [7], in assay [8], in [9] and in assay [10] was above 100 µM each time.
As for `COc1c(C(C)=O)c(OCCCCOc2c(C(C)=O)c(OC)c3ccoc3c2OC)c(OC)c2occc12`, the GI50 is above 100 µM in assay [1]; above 100 µM in assay [2]; above 100 µM in [3]; 4.06 µM in assay [4]; 2.14 µM in assay [5]; 3.75 µM in assay [6]. In addition, the GI50 was 1.69 µM in assay [7], 0.394 µM in assay [8], 2.32 µM in [9] and 2.02 µM in assay [10]. The TGI in [1], in [2], in assay [3], in [4], in assay [5] and in assay [6] was above 100 µM each time. Besides, the TGI is above 20.6 µM in [7], 5.57 µM in [8], 7.05 µM in assay [9] and above 26.4 µM in assay [10].
`CN(C)c1ccc(Nc2c3ccccc3nc3ccccc23)cc1`: the GI50 in assay [1] is 1.05 µM; in assay [2], 1.41 µM; in assay [3], 1.14 µM; in [4] it was 0.53 µM; in assay [5], 0.685 µM; in [6], 1.22 µM. For the same molecule, the GI50 in assay [7] is 1.34 µM; in assay [8] it was 0.984 µM; in assay [9], 1.36 µM; in assay [10], 1.56 µM. In addition, the TGI was 2.94 µM in [1]; 3.93 µM in assay [2]; 2.59 µM in assay [3]; 2.34 µM in [4]; 2.33 µM in assay [5]; 3.22 µM in [6]. In addition, the TGI in [7] turned out to be 5.41 µM; in assay [8] it was 3.9 µM; in assay [9], 2.84 µM; in [10] it was 4.01 µM.
As to `[2H]C([2H])([2H])NC(=O)c1nnc(NC(=O)C2CC2)cc1Nc1cccc(-c2ncn(C)n2)c1OC`, the GI50 in [1] is 14.9 µM; in assay [2] it was 96.3 µM; in [3], 15.5 µM; in [4], 44.6 µM; in assay [5], 56.7 µM; in assay [6], 41.3 µM. Besides, the GI50 in assay [7] is 29.5 µM; in assay [8], 14.2 µM; in assay [9] it was above 100 µM; in assay [10], 32.4 µM. Besides, the TGI in [1], in [2], in [3], in assay [4], in assay [5] and in assay [6] was above 100 µM each time. Also, the TGI in assay [7], in assay [8], in [9] and in [10] was above 100 µM each time.
On to `CCCCC(SC(=S)N1CCCC1)C(=O)Nc1nc(CC(=O)OCC)cs1` (centres undefined), for which the GI50 in assay [1] was 67.3 µM; in assay [2], 99.5 µM; in [3], above 100 µM; in [4], 21.8 µM; in [5], 35.4 µM; in assay [6], 9.52 µM. For the same molecule, the GI50 in [7] was 0.985 µM; in assay [8], 10.6 µM; in assay [9] it was 67.4 µM; in assay [10], 30.5 µM. The TGI in assay [1], in assay [2], in assay [3], in assay [4], in assay [5] and in [6] was above 100 µM throughout. Further, the TGI is above 100 µM in assay [7], 90.9 µM in assay [8], above 100 µM in [9] and above 100 µM in assay [10].
Turning to `COc1ccc(-c2c(C)c(C(=O)O)nc(-c3ccc4c(O)c(OC)c5c(c4n3)=NC(C)(C)N=5)c2N)c(O)c1OC`, the TGI is above 100 µM in [1]; 35.7 µM in assay [2]; 44 µM in assay [3]; above 100 µM in [4]; 30.7 µM in assay [5]; 43.2 µM in [6]. Besides, the TGI in [7] is above 100 µM; in assay [8], 86.6 µM; in assay [9], 59.8 µM; in assay [10], above 100 µM.
As for `O=[N+]([O-])c1ccc(NN=C2CN3CCN(C2)c2ccccc23)c([N+](=O)[O-])c1`, the TGI in [1], in [2], in assay [3], in assay [4], in assay [5] and in [6] was above 100 µM in each case. The TGI in assay [7], in assay [9] and in assay [10] was above 100 µM each time.
As to `COc1ccc(/C=C(/c2ccccc2)[N+](=O)[O-])c(OC)c1`, the GI50 is 1.44 µM in assay [1]; 1.92 µM in assay [2]; 2.42 µM in [3]; 2.88 µM in assay [4]; 1.45 µM in assay [5]; 1.69 µM in assay [6]. Further, the GI50 in assay [7] was 1.32 µM; in assay [8], 0.372 µM; in assay [9], 1.5 µM; in assay [10] it was 0.668 µM. Also, the TGI in assay [1] was found to be 2.92 µM; in [2], 3.4 µM; in assay [3] it was 4.77 µM; in [4] it was 10.3 µM; in assay [5], 2.97 µM; in [6], 3.09 µM. Further, the TGI in [7] stood at 2.79 µM; in [8], 1.64 µM; in assay [9], 3.03 µM; in assay [10], 4.21 µM.

Source of the values: PubChem BioAssay (NCI).
